Experimental data from ChEMBL document CHEMBL1152560, “Substituted 2-arylbenzothiazoles as kinase inhibitors: hit-to-lead optimization” (Bioorg Med Chem, 2009).

Assays:
[1] = target: T1, Protein kinase C iota type (Homo sapiens) (UniProt P41743); test: Residual activity of PKCiota at 0.1 uM by microplate scintillation counting
T1 sequence (whole entry): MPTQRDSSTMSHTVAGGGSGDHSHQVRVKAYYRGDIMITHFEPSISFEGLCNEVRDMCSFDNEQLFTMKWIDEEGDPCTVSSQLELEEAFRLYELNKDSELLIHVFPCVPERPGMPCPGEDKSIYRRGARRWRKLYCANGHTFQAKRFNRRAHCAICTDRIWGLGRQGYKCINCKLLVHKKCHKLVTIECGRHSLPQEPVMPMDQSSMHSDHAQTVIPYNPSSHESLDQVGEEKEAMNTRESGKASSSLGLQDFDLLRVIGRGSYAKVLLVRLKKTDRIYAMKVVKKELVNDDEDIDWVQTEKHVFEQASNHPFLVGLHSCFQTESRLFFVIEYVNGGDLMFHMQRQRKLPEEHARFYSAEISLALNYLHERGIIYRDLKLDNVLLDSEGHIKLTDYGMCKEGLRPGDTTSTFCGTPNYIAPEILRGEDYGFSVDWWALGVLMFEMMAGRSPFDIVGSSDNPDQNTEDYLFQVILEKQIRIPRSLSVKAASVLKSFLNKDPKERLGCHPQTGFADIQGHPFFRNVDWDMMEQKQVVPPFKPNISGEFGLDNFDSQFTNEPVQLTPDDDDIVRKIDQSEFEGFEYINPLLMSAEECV

[2] = target: Mitogen-activated protein kinase 8 (Homo sapiens) (UniProt P45983); test: Residual activity of JNK1 at 1 uM by microplate scintillation counting
Sequence of Mitogen-activated protein kinase 8 (Homo sapiens) (P45983 whole entry): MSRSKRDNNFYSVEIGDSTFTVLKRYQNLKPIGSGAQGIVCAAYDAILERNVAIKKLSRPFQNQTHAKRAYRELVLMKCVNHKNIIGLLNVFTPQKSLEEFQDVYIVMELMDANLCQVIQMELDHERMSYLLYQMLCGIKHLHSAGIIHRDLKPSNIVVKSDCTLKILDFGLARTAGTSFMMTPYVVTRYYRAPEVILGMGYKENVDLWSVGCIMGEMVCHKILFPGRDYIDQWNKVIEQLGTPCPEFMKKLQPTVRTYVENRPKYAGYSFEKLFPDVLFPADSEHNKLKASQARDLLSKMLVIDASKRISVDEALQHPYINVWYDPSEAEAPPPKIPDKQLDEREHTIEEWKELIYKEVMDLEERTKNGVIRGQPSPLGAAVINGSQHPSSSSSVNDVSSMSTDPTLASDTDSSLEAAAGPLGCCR

[3] = target: T2, Serine/threonine-protein kinase D2 (Homo sapiens) (UniProt Q9BZL6); test: Residual activity of PRKD2 at 1 uM by microplate scintillation counting
T2 sequence (whole entry): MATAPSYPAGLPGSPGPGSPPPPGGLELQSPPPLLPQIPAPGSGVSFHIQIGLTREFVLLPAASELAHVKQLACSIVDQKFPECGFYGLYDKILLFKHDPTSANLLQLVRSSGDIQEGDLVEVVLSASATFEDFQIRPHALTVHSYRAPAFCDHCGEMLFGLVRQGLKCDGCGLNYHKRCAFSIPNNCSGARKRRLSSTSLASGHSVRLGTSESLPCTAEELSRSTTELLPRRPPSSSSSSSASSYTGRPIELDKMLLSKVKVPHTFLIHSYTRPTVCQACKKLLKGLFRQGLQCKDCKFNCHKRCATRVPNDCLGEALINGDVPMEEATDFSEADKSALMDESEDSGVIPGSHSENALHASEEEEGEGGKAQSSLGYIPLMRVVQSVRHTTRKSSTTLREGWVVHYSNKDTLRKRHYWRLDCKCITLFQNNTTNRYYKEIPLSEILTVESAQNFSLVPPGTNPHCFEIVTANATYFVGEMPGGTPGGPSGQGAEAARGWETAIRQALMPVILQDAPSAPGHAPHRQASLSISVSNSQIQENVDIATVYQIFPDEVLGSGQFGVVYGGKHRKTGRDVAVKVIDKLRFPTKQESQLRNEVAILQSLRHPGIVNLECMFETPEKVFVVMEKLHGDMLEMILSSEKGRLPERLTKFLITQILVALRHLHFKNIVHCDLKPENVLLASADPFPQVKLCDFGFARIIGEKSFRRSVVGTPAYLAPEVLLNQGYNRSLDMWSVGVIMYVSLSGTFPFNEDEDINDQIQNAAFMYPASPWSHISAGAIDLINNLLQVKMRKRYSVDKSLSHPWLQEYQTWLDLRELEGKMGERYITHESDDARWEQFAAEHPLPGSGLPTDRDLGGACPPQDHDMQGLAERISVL

[4] = target: RAC-beta serine/threonine-protein kinase (Homo sapiens) (UniProt P31751); test: Residual activity of AKT2 at 10 uM by microplate scintillation counting
Sequence of RAC-beta serine/threonine-protein kinase (Homo sapiens) (P31751 whole entry): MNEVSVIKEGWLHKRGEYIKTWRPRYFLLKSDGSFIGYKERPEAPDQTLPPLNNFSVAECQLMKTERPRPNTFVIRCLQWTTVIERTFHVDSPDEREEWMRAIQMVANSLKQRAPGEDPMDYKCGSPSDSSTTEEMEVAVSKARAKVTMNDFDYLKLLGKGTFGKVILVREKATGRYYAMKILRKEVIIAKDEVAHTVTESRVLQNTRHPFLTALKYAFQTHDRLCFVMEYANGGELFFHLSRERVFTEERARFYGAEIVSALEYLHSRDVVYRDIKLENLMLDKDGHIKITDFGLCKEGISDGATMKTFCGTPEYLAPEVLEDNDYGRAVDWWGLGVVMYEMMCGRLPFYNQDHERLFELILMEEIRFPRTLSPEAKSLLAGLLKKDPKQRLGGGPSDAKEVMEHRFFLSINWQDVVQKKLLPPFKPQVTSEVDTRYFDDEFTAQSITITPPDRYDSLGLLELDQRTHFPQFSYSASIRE

[5] = target: Casein kinase II subunit alpha' (Homo sapiens) (UniProt P19784); test: Residual activity of CK2alpha2 at 1 uM by microplate scintillation counting
Sequence of Casein kinase II subunit alpha' (Homo sapiens) (P19784 whole entry, looked up): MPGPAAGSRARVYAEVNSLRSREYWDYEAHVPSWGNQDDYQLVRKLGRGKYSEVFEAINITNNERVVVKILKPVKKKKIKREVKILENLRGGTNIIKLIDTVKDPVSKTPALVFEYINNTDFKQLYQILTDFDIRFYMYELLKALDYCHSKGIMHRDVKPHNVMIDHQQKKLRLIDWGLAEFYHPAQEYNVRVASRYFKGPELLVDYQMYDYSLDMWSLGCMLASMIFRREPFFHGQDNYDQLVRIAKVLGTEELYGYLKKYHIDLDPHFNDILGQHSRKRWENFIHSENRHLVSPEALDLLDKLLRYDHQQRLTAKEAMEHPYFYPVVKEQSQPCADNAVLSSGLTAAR

[6] = target: Glycogen synthase kinase-3 beta (Homo sapiens) (UniProt P49841); test: Residual activity of GSK3-beta at 10 uM by microplate scintillation counting
Sequence of Glycogen synthase kinase-3 beta (Homo sapiens) (P49841 whole entry, looked up): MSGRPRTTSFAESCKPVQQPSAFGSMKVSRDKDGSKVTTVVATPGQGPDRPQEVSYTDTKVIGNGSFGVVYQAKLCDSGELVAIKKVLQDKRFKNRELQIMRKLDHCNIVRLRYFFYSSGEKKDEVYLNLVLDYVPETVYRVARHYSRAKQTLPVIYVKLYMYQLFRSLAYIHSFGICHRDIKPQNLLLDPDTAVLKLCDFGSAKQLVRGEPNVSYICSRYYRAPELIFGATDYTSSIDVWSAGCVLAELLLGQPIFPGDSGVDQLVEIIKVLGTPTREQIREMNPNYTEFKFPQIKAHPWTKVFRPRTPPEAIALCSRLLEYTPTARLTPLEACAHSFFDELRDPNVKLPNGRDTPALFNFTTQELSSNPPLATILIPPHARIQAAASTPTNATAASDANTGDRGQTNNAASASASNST

[7] = target: T3, Tyrosine-protein kinase JAK3 (Homo sapiens) (UniProt P52333); test: Residual activity of JAK3 at 10 uM by microplate scintillation counting
T3 sequence (whole entry): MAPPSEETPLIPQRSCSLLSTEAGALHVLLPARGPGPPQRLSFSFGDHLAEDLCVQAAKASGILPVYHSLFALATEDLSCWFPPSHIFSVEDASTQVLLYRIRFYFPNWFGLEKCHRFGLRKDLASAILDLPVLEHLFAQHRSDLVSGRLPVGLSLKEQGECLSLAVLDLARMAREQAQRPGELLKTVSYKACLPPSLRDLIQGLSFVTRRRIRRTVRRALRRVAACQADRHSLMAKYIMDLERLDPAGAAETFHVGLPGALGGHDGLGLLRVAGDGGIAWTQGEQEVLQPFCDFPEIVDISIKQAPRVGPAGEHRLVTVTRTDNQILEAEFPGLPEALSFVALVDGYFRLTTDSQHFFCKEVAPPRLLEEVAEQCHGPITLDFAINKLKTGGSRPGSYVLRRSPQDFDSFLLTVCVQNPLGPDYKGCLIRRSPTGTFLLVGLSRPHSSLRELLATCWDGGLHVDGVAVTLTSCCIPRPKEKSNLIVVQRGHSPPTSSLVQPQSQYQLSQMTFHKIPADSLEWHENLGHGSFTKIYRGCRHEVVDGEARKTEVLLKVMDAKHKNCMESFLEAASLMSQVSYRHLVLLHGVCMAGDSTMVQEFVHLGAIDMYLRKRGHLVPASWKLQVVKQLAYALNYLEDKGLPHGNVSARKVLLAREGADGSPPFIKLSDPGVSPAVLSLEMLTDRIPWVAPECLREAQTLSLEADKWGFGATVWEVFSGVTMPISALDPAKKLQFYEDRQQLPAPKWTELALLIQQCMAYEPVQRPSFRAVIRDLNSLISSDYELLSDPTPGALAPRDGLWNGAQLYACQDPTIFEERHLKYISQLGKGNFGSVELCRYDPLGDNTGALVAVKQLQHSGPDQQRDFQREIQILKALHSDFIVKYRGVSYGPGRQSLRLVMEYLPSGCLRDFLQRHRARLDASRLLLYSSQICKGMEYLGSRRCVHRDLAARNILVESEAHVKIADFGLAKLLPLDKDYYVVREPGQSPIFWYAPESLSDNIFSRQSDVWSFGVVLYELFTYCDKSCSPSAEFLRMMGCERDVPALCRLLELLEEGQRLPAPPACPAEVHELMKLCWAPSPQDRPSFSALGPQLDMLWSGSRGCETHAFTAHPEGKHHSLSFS

Row | SMILES | residual activity [1] [%] | residual activity [2] [%] | residual activity [3] [%] | residual activity [4] [%] | residual activity [5] [%] | residual activity [6] [%] | residual activity [7] [%]
1 | COc1cc2c(Oc3ccc(-c4nc5ccccc5s4)cc3)ncnc2cc1OCCCN1CCN(C)CC1 | 105 | 142 | 82 | 175 | 96 | 123 | 63
2 | COc1cc2c(Oc3ccc(-c4nc5ccccc5s4)cc3)ncnc2cc1OCCCN1CCCC1 | 102 | 142 | 94 | 119 | 88 | 104 | 68
3 | COc1cc2c(Oc3ccc(-c4nc5ccccc5s4)cc3F)ncnc2cc1OCCCN1CCN(C)CC1 | 87 | 154 | 90 | 167 | 89 | 98 | 53
